Laboratory results: patent US20070155707A1 (Kadmus Pharmaceuticals, Inc., priority 2005, published 2007)

Assays:
FAAH = conditions: Kathuria 2003; Mor 2004; WO 2004/033422; cited from earlier work
[1] = Determination of pharmacokinetics in rats following oral administration (plasma and brain); format: in vivo, rat; conditions: for AUC / Cmax: rat, plasma; for AUC / Cmax / Brain AUC / Brain Cmax: 10 mg/kg oral gavage, solution
Protocol: Potential FAAH inhibitors are formulated for oral (p.o.), intraperitoneal (i.p.) or intravenous (i.v.) delivery to rats. Formulated compounds are administered and the animals were sacrificed at pre-determined time points post dose. At sacrifice, blood samples are collected into EDTA plasma tubes and whole brains were snap frozen in liquid nitrogen. EDTA plasma was isolated from blood samples after centrifugation. Brain and plasma samples are stored at −80° C. prior to analysis. All samples (brain and plasma) are analyzed for the concentrations of test compound (FAAH inhibitor), metabolites of the test compound and endogenous fatty acid ethanolamide levels (including anandamide, oleoylethanolamide, and palmitoylethanolamide) by LC-MS/MS. Levels of these compounds are compared across time points to determine pharmacokinetic properties of the test compounds and partial pharmacological effects of inhibiting FAAH activity (including changes of fatty acid ethanolamide levels).
The pharmacokinetic properties of compounds provided herein were assessed in rats following oral administration as a solution. […] The solution of the test compound was administered to rats at a dose of 10 mg/kg via oral gavage.

[2] = biological target: T1, fatty acid amide hydrolase (FAAH) (Homo sapiens, UniProt O00519); experiment: FAAH LC-MS/MS screening assay, IC50 determination (anandamide hydrolysis by human liver microsomes); format: biochemical; conditions: inhibition of FAAH activity
T1 construct: 25 μL of human liver microsomes (31.3 μg); from tissue; host or cells: human liver microsomes
T1 sequence (O00519 1-579): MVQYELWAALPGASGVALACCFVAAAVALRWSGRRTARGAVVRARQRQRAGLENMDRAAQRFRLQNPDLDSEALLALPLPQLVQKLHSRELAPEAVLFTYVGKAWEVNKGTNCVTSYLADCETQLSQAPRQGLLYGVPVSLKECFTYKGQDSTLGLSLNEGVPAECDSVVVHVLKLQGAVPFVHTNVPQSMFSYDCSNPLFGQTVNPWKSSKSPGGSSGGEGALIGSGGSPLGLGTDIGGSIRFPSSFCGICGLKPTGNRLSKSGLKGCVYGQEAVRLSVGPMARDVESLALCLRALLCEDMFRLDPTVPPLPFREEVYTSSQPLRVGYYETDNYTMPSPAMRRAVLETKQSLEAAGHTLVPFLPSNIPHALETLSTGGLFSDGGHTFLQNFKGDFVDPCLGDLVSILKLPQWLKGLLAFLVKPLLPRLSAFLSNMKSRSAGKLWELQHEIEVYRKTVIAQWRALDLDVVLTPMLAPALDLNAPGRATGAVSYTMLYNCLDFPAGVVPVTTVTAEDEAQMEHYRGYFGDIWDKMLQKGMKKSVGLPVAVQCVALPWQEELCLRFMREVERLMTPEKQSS
Protocol: For determining IC50 values for candidate FAAH inhibitor compounds, the above method is used with an adjusted FAAH inhibitor concentration. In the IC50 assay, the FAAH inhibitor is added at a concentration range of approximately 3 μM to 0.03 nM. The final calculation of IC50 is determined by first transforming the concentrations by “X=log(X)” and then analyzing the data with a sigmoidal dose-response curve (no constraints) using GraphPad Prism version 4.00 for Windows (GraphPad Software, San Diego Calif. USA, www.graphpad.com).

Question: For NC(=O)c1cccc(-c2cccc(OC(=O)NC3CCCCC3)c2)c1, which “Inhibition of FAAH activity (in words)” value (FAAH) is on record?
Answer: potent and selective inhibitors of FAAH activity

Question: Which AUC [1] does the source give for O=C(NCC1CCCCC1)Oc1cccc(C(=O)O)c1 [Compound 2, 3-(Cyclohexylmethylcarbamoyloxy)benzoic acid] here?
Answer: 1700 ng·h/mL

Question: What about the Cmax [1] of the same compound?
Answer: 1250 ng/mL

Question: What about the IC50 [2] of the same compound?
Answer: < 100 nM

Question: Which results are given for O=C(NCC1CCCCC1)Oc1ccc(C(=O)O)cc1 [Compound 4, 4-(Cyclohexylmethylcarbamoyloxy)benzoic acid]?
Answer: Brain AUC [1]: 483 ng·h/g; Brain Cmax [1]: 475 ng/g; Crossing of the blood brain barrier ([1]; 10 mg/kg oral, conclusion from Table 2): does not substantially cross the blood brain barrier; AUC [1]: 8840 ng·h/mL; Cmax [1]: 7720 ng/mL; IC50 [2]: < 100 nM

Question: For O=C(O)Cc1cccc(OC(=O)NCC2CCCCC2)c1 [Compound 7], which IC50 [2] is on record?
Answer: < 100 nM

Question: With O=C(NCC1CCCCC1)Oc1cccc(-c2nnn[nH]2)c1 [Compound 11, 3-(1H-Tetrazol-5-yl)phenyl cyclohexylmethylcarbamate] as the compound, how does the IC50 [2] read?
Answer: < 100 nM

Question: For NC(=O)c1cccc(-c2cccc(OC(=O)NC3CCCCC3)c2)c1 [KDS-4103, reference compound], which “Brain AUC” value [1] is on record?
Answer: 9,737 ng * hr/g

Question: What about the “Brain Cmax” value [1] of the same compound?
Answer: 4,584 ng/g

Question: What about the AUC [1] of the same compound?
Answer: 6730 ng·h/mL

Question: What about the Cmax [1] of the same compound?
Answer: 3160 ng/mL
